Data reported in US8383617B2, “Treatment of protein aggregation diseases” (priority 2007, dated 2013).
“And” between values parts separate entries of the source, which are not always exact repeats. Identical values can stand only once.

What was measured:
[1] = target: Synthetic beta-amyloid peptide 1-40 (Homo sapiens, UniProt P05067); test: Seprion assay screen for compounds that affect amyloid aggregation; format: biochemical; details: test compounds at 1 mM; for Relative aggregation compared to 'no compound' aggregation control: peptide 2.8 μg/ml, 30 min at 37° C., Seprion assay signal
Synthetic beta-amyloid peptide 1-40, sequence (P05067 672-711): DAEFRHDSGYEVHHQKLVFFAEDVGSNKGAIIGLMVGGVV

beta-amyloid 1-40 [2] = target: T1, beta-amyloid 1-40 (Homo sapiens, UniProt P05067); test: Seprion assay of brain extracts of treated hAPP(751) mice, beta-amyloid 1-40; format: in vivo; details: SDS extracts of brain; daily oral from 2 to 6 months of age; fluphenazine 0.5 mg/Kg, trimipramine 25 mg/Kg; one value per animal
T1 construct: These mice develop increased amounts of beta-amyloid 1-40 and 1-42 in the brain; from tissue; host or cells: brain extracts of hAPP(751) transgenic mice
T1 sequence (P05067 672-711): as above

beta-amyloid 1-42 [3] = target: T2, beta-amyloid 1-42 (Homo sapiens, UniProt P05067); test: ELISA of brain extracts of treated hAPP(751) mice, beta-amyloid 1-42; format: in vivo; details: daily oral from 2 to 6 months of age, fluphenazine 0.5 mg/Kg, trimipramine 25 mg/Kg, one value per animal
T2 construct: ELISA and Seprion assay for amyloid — 1-40 and 1-42 on the SDS extracts; from tissue; host or cells: brain extracts of hAPP(751) transgenic mice
T2 sequence (P05067 672-713): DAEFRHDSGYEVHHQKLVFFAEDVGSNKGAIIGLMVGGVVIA

amyloid plaques = test: Immunohistochemistry of brains of treated hAPP(751) mice for amyloid plaques; format: in vivo; details: immunohistochemistry of brain; daily oral from 2 to 6 months of age; fluphenazine 0.5 mg/Kg, trimipramine 25 mg/Kg
beta-amyloid 1-40 [4] = target: T1, beta-amyloid 1-40; test: ELISA of brain extracts of treated hAPP(751) mice, beta-amyloid 1-40; format: in vivo; details: daily oral from 2 to 6 months of age, fluphenazine 0.5 mg/Kg, trimipramine 25 mg/Kg, one value per animal
beta-amyloid 1-42 [5] = target: T2, beta-amyloid 1-42; test: Seprion assay of brain extracts of treated hAPP(751) mice, beta-amyloid 1-42; format: in vivo; details: SDS extracts of brain; daily oral from 2 to 6 months of age; fluphenazine 0.5 mg/Kg, trimipramine 25 mg/Kg; one value per animal
[6] = target: Synthetic beta-amyloid peptide (Homo sapiens, UniProt P05067); test: PAGE and silver staining of aggregation reactions incubated with compounds; format: biochemical; details: peptide incubated in the presence of compound, FIG. 2
Synthetic beta-amyloid peptide, sequence (P05067 672-711): as the sequence (P05067 672-711) above

[7] = Therapy of a patient with Gerstman-Straussler-Scheinker (GSS) syndrome; details: intraventricular, before the combination therapy

Clc1ccc2c(c1)C(N1CCNCC1)=Nc1ccccc1O2 [Amoxapine, amoxapine]
Relative aggregation compared to 'no compound' aggregation control [1]: 119%

CN1CCN(CC/C=C2/c3ccccc3Sc3ccc(S(=O)(=O)N(C)C)cc32)CC1 [Cis-thiothixene, cis-thiothixene]
Relative aggregation compared to 'no compound' aggregation control [1]: 42%

OCCN1CCN(CCC=C2c3ccccc3Sc3ccc(C(F)(F)F)cc32)CC1 [Flupenthixol, cis-(Z)-flupenthixol]
Relative aggregation compared to 'no compound' aggregation control [1]: 48.2%

OCCN1CCN(CCCN2c3ccccc3Sc3ccc(C(F)(F)F)cc32)CC1 [Fluphenazine, fluphenazine]
Seprion assay beta-amyloid 1-40 OD420 nm (beta-amyloid 1-40 [2]): 0.18 OD420 nm and 0.09 OD420 nm | ELISA beta-amyloid 1-42 ng (beta-amyloid 1-42 [3]; SDS extracts of brain): 295 ng and 165 ng | ELISA beta-amyloid 1-42 ng (beta-amyloid 1-42 [3]; formic acid extracts of brain): 143 ng and 197 ng | plaque reduction (amyloid plaques): 23% | ELISA beta-amyloid 1-40 ng (beta-amyloid 1-40 [4]; SDS extracts of brain): 88 ng and 51 ng | ELISA beta-amyloid 1-40 ng (beta-amyloid 1-40 [4]; formic acid extracts of brain): 116 ng and 119 ng | Seprion assay beta-amyloid 1-42 OD420 nm (beta-amyloid 1-42 [5]): 0.93 OD420 nm and 0.68 OD420 nm

c1ccc2c(c1)Nc1ccccc1S2 [Phenothiazine]
Relative aggregation compared to 'no compound' aggregation control [1]: 80%

CN(C)CCCN1c2ccccc2Sc2ccccc21.Cl [Promazine, promazine]
Relative aggregation compared to 'no compound' aggregation control [1]: 44.5% | inhibition of amyloid aggregation by PAGE and silver staining [6]: inhibit the aggregation of the amyloid

CC(CN(C)C)CN1c2ccccc2CCc2ccccc21 (centres unmarked) [Trimipramine, trimipramine]
Relative aggregation compared to 'no compound' aggregation control [1]: 259% | Seprion assay beta-amyloid 1-40 OD420 nm (beta-amyloid 1-40 [2]): 0.11 OD420 nm and 0.58 OD420 nm and 0.14 OD420 nm and 0.10 OD420 nm | ELISA beta-amyloid 1-42 ng (beta-amyloid 1-42 [3]; SDS extracts of brain): 346 ng and 369 ng and 529 ng and 350 ng | ELISA beta-amyloid 1-42 ng (beta-amyloid 1-42 [3]; formic acid extracts of brain): 174 ng and 185 ng and 311 ng and 213 ng | plaque reduction (amyloid plaques): 15% | ELISA beta-amyloid 1-40 ng (beta-amyloid 1-40 [4]; SDS extracts of brain): 169 ng and 101 ng and 195 ng and 89 ng | ELISA beta-amyloid 1-40 ng (beta-amyloid 1-40 [4]; formic acid extracts of brain): 127 ng and 111 ng and 182 ng and 115 ng | Seprion assay beta-amyloid 1-42 OD420 nm (beta-amyloid 1-42 [5]): 0.26 OD420 nm and 2.26 OD420 nm and 0.98 OD420 nm and 0.64 OD420 nm | inhibition of amyloid aggregation by PAGE and silver staining [6]: inhibit the aggregation of the amyloid

CCN(CC)CCCC(C)Nc1c2ccc(Cl)cc2nc2ccc(OC)cc12 (centres unmarked) [quinacrine]
effect on amyloid aggregation (in words) ([1]; Seprion assay screen): not effective

nortriptyline
Relative aggregation compared to 'no compound' aggregation control [1]: 189%

pentosan polysulphate
clinical effect [7]: had no effect

protryptyline [Protriptyline]
Relative aggregation compared to 'no compound' aggregation control [1]: 184%
